Data on 17 compounds can be found in EP1664254B9, “LIQUID LAUNDRY DETERGENT WITH POLYANIONIC AMMONIUM SURFACTANT” (priority 2003, dated 2005).

Experiment in the first series: not given
Conditions: 0.01 N; cited from earlier work.
As to `[K+].[OH-]` [KOH, potassium hydroxide], the pH was 12.0.

As to `[Na+].[OH-]` [NaOH, sodium hydroxide], the pH is 12.0.

The same series, now with this note: 1.0 N aqueous solutions; cited from earlier work.
As to `[K+].[OH-]` [KOH, potassium hydroxide], the pH was 14.0.

For `[Na+].[OH-]` [NaOH, sodium hydroxide], the pH is given as 14.0.

Experiment in the next series: not given
Particulars: * from Huntsman Technical Bulletin "Amine applications and properties data applications"; cited from earlier work.
On to `NCCNCCNCCN` [Triethylenetetramine (TETA), Triethylenetetramine], for which the pKa is given as 9.80*.

As to `NCCN` [Ethylenediamine (EDA), Ethylenediamine], the pKa was 9.90*.

Still in this series, the particulars now being: according to McMurry, Organic Chemistry, p. 45, 1984; cited from earlier work.
On to ethoxide CH3CH2O^-, for which the pKa was 16.

Still in this series, the particulars now being: from CRC Handbook of Chemistry and Physics, 83rd Edition; cited from earlier work.
Consider `NCCCCCN` [1,5-pentanediamine], for which the pKa1 was 10.25 and the pKa2 was 9.13.

Consider `NCCCCCCN` [1,6-Hexanediamine], for which the pKa1 is reported as 11.86 and the pKa2 was 10.76.

As to `NCCCCN` [1,4-Butanediamine], the pKa was 10.80.

In the case of `NCCCN` [1,3-propanediamine], the pKa2 is reported as 8.88.

In the case of `CNO` [Methylhydroxylamine], the pKa is 12.50.

For `CN(C)CCN(C)C` [N,N,N',N'-Tetramethyl1,2-ethanediamine], the pKa1 is listed as 10.40 and the pKa2 is reported as 8.26.

For the compound `CC(N)CN` (centres unmarked) [1,2-propanediamine], the pKa1 is 9.82 and the pKa2 is given as 6.61.

`COCCN` [2-mthyloxyethylamine]: the pKa was 9.40.

Turning to `CC(C)(C)CN` [2,2-dimethylpropylamine], the pKa was 10.15.

Take `CC(N)(O)CN` (centres unmarked) [1,2-diamino-2-propanol]: the pKa1 was 9.69 and the pKa2 was 7.93.

Turning to `NC1CCCCC1` [Cyclohexylamine], the pKa was 10.64.

In the case of `NCCN` [Ethylenediamine (EDA), Ethylenediamine], the pKa1 was 9.92 and the pKa2 is on record as 6.82.

A short description of a further series: Water solubility / appearance and pH of solution on mixing, dilution and standing. In kind it is physicochemical. Particulars: TEPA 2.0 g in water 94.0 g. The source says:
In Example 1 (within the scope of the invention), when LAS acid was neutralized with a polyamine (i.e., TEPA), it formed PAAS. As PAAS began forming, the solution became hazy. Upon further addition of the LAS acid, the hazy solution became a dispersion. Upon standing for hours, the dispersion formed a layer of sediment at the bottom of the beaker. Even a very diluted formulation (such as below 0.1%) was hazy.
The solution was clear at the all time over the entire pH range, leading to the conclusion that Na-LAS was fully ionized or disassociated.
Sodium xylenesulfonate was added to an aqueous PAAS dispersion to attempt to solubilize PAAS by ion-exchange and/or hydrotrope mechanism.
Example 1 was repeated, except that fatty acid was used in place of LAS acid. […]
This example investigated the solubilization of PAAS in water, with the aid of a solubiliser. A dispersion of PAAS (with LAS and fatty acid as conjugated acid) was mixed with Na-LES solution (59.5% Na-LES, 10% propylene glycol, 6.5% ethanol, and balance of water). […]
As for `NCCNCCNCCNCCN` [TEPA, Tetraethylenepentamine], the Observations result is reported as “Clear”.

A word on the pKa: it is the negative logarithm of the acid dissociation constant.
